The values below come from patent publication US10494404B2, “Quinolinium conjugates of cyclosporin” (priority 2014, dated 2019).

Series [1] addresses Cylophilin D (CypD) (Homo sapiens, UniProt P30405). The experiment in a line: Cyclophilin D competitive fluorescence polarization assay. The note with it: competitive FP assay; FP-CsA 45 nM, enzyme 40 nM; read-out: Ki for cylophilin D binding. Background: Polarisation of emitted light reports the rotation of a fluorescent probe.
Protocol: A competitive fluorescence polarization assay (FP-assay) was used.
Polarization was determined by measuring the ratios between parallel and perpendicular polarized light and calculated as described by Roehrl et al 2004.
Titration of a single probe concentration against different enzyme concentrations was used to determine the dissociation constant (Kd) (Nikolovska et al 2004). The inhibitor constant (Ki) was calculated with the equation shown below in Equation A. (Nikolovska et al 2004).
Three replicates were used for this experiment. […] DMSO % in total solution should remain lower than 1%.
For series [2], the system named is Ca^2+ mediated PT pore formation. The experiment in a line: Calcium retention capacity (CRC) assay, isolated WT mouse liver mitochondria. It counts as biochemical. The conditions noted are these: 8 nM. From the text:
In order to assess the efficiency of compounds on Ca^2+ mediated PT pore formation we measured calcium retention capacity (CRC) of isolated mouse liver mitochondria. […] Energised mitochondria take up Ca^2+, resulting in a declining fluorescent signal following the Ca^2+ bolus induced peak. Mitochondria take up and buffer Ca^2+ up to a threshold when intramitochondrial [Ca^2+] reaches threshold to induce PT. […] The amount of Ca^2+ required to induce PT characterizes its Ca^2+ sensitivity and defines mitochondrial CRC. Inhibition of CypD, the Ca^2+ sensor of PT, thus leads to increased CRC.
Further experiments were carried out using the techniques discussed in Example 4.
Subcellular fractionation was performed as previously described (Astin et al, 2013). […] At 4° C., the liver was rinsed in PBS to remove excess blood, and any fat and connective tissue was eliminated. PBS was then replaced with isolation buffer containing 1 mM PMSF, and the liver was chopped into pieces (approximately 2 mm in length). Tissue was then homogenized in this solution until no solid matter remained, and then centrifuged at 800G for 10 minutes at 4° C. The nuclear pellet was then discarded, and the post nuclear supernatant retained, and centrifuged at 10300G for another 10 minutes at 4° C. The postmitochondrial supernatant was discarded, and the mitochondrial pellet was resuspended in isolation buffer and PMSF, and kept on ice. Protein levels were quantified using a ThermoScientific BCA protein quantification assay, as per manufacturer's instructions.
Isolated mitochondria were resuspended (500 μg protein/ml) in MSK buffer (75 mM mannitol, 25 mM sucrose, 5 mM potassium phosphate monobasic, 20 mM Tris-HCl, 100 mM KCl, and 0.1% bovine serum albumin, pH 7.4) supplemented with 10 mM succinate, 1 μM rotenone and 1 μM Fluo5N. 200 μl mitochondrial suspension per well was used in 96 well microplates. Compounds were incubated for ten minutes before the plate was assayed in a Fluostar Optima plate reader, using Ex/Em filters at 480/520 […]; CaCl2 was injected approximately every 6.5 minutes for 80 minutes (12 total injections, final concentration of 75 μM). To calculate % inhibition of Ca^2+ induced pore opening, first areas under each curve were calculated, and controls without CaCl2 addition were subtracted as background. The background corrected values were then expressed as the fraction of controls without mitochondria, representing the total amount of Ca^2+ added, unbuffered by mitochondria. Percentage inhibition for each [compound] was then calculated as the % of the corresponding value for the untreated condition. […] For experiments with CypD −/− mice, 100 ul mitochondrial suspension per well was used. CaCl2) was injected approximately every 6.5 minutes for 135 minutes (20 total injections, final concentration of 266 μM). Data were background corrected and expressed as the fraction of controls without mitochondria, and then normalised to the wild type no drug condition. Significance was assessed by one way ANOVA.

The subject of series [3] is HepG2 cells. The experiment in a line: HepG2 high content screening of cell health markers. Type of series: cell-based. The note with it: HepG2, 72 h exposure. As to the method: HepG2 cells were plated on 96-well tissue culture treated black walled clear bottomed polystyrene plates, 100 μL, (3000 cells) per well. After 24 hours the cells were dosed with the test compounds at a range of concentrations. At the end of the incubation period, the cells were loaded with the relevant dye/antibody for each cell health markers set out below. The plates were then scanned using an automated fluorescent cellular imager [ArrayScan VTI (Thermo Scientific Cellomics)].
The following cell health markers were measured: • a. Cell count—a decreasing number of cells per well indicates toxicity due to necrosis, apoptosis or a reduction in cellular proliferation. • b. Nuclear area—an increase in nuclear size indicates necrosis or G2 cell cycle arrest and a decrease indicates apoptosis. • c. DNA structure—an increase in DNA structure indicates chromosomal instability and DNA fragmentation. • d. […]
HepG2 cells were seeded in black, clear-bottom 96-well tissue culture plates at a density of 3000 cells per well. […] Cell count, nuclear size and DNA structure were also measured Hoechst 33342 (Life Technologies). Following staining of the HepG2 cells fluorescence was analyzed by image acquisition with a Thermo Fisher Cellomics® ArrayScanVTI High Content Screening Reader (ThermoFisher Scientific Inc., Waltham, Mass.) and vHCS™ view software (ThermoFisher Scientific Inc.). […]

Sequence of Cylophilin D (CypD) (P30405 30-207): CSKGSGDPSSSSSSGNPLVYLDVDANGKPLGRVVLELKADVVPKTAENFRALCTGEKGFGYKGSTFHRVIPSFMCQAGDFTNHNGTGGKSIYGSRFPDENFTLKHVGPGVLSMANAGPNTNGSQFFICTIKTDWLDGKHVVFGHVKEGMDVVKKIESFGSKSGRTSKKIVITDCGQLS

For `C/C=C/C[C@@H](C)[C@@H](O)[C@H]1C(=O)N[C@@H](CC)C(=O)N(C)C(C/C=C/CCC[n+]2cccc3ccccc32)C(=O)N(C)[C@@H](CC(C)C)C(=O)N[C@@H](C(C)C)C(=O)N(C)[C@@H](CC(C)C)C(=O)N[C@@H](C)C(=O)N[C@H](C)C(=O)N(C)[C@@H](CC(C)C)C(=O)N(C)[C@@H](CC(C)C)C(=O)N(C)[C@@H](C(C)C)C(=O)N1C` (stereo partly shown) [Compound 2, [Sar-(E)-Hexen-2-yl 6-quinolinium]^3 CsA], the Ki in series [1] amounted to 0.125 µM.

As for `CC[C@@H]1NC(=O)[C@H]([C@H](O)[C@H](C)C/C=C/CCC[n+]2ccc(N(C)C)c3ccc(C(F)(F)F)cc32)N(C)C(=O)[C@H](C(C)C)N(C)C(=O)[C@H](CC(C)C)N(C)C(=O)[C@H](CC(C)C)N(C)C(=O)[C@@H](C)NC(=O)[C@H](C)NC(=O)[C@H](CC(C)C)N(C)C(=O)[C@H](C(C)C)NC(=O)[C@H](CC(C)C)N(C)C(=O)CN(C)C1=O` [Compound 3, [Gly(1S,2R,E)-10-(4-dimethylamino-7-trifluoromethylquinolinium)1-hydroxy-2-methyldec-4-enoic acid]^1 CsA], the “inhibition of Ca2+ mediated PT pore formation” value in series [2] is reported as “retain high levels inhibition”.

Consider `C=CCC1C(=O)N(C)[C@@H](CC(C)C)C(=O)N[C@@H](C(C)C)C(=O)N(C)[C@@H](CC(C)C)C(=O)N[C@@H](C)C(=O)N[C@H](C)C(=O)N(C)[C@@H](CC(C)C)C(=O)N(C)[C@@H](CC(C)C)C(=O)N(C)[C@@H](C(C)C)C(=O)N(C)[C@@H]([C@H](O)[C@H](C)C/C=C/CCC[n+]2ccc(N(C)C)c3ccc(C(F)(F)F)cc32)C(=O)N[C@@H](CC)C(=O)N1C` (stereo partly shown) [Compound 4], for which, in series [1], the Ki was 0.073 µM. In addition, in series [2], the “inhibition of Ca2+ mediated PT pore formation” value was “retain high levels inhibition”.

As to `CC[C@@H]1NC(=O)[C@H]([C@H](O)[C@H](C)C/C=C/CCC[n+]2ccc(O)c3ccccc32)N(C)C(=O)[C@H](C(C)C)N(C)C(=O)[C@H](CC(C)C)N(C)C(=O)[C@H](CC(C)C)N(C)C(=O)[C@@H](C)NC(=O)[C@H](C)NC(=O)[C@H](CC(C)C)N(C)C(=O)[C@H](C(C)C)NC(=O)[C@H](CC(C)C)N(C)C(=O)CN(C)C1=O` [Compound 5, [Gly-(1S,2R,E)-8-(4-hydroxyquinolinium)-1-hydroxy-2-methyloct-4-ene]^1 CsA], the inhibition constant Ki in series [1] came to 0.064 µM.

Turning to `C/C=C/C[C@@H](C)[C@@H](O)[C@H]1C(=O)N[C@@H](CC)C(=O)N(C)C(C/C=C/CCC[n+]2ccc(O)c3ccccc32)C(=O)N(C)[C@@H](CC(C)C)C(=O)N[C@@H](C(C)C)C(=O)N(C)[C@@H](CC(C)C)C(=O)N[C@@H](C)C(=O)N[C@H](C)C(=O)N(C)[C@@H](CC(C)C)C(=O)N(C)[C@@H](CC(C)C)C(=O)N(C)[C@@H](C(C)C)C(=O)N1C` (stereo partly shown) [Compound 6, [Sar-(E)-Hexen-2-yl-6-(4-hydroxy)quinolinium]^3 CsA], in series [1], the inhibitory constant (Ki) was 0.046 µM.

Regarding `CC[C@@H]1NC(=O)[C@H]([C@H](O)[C@H](C)C/C=C/CCC(=O)Nc2ccc(NCc3ccc(F)cc3)nc2N)N(C)C(=O)[C@H](C(C)C)N(C)C(=O)[C@H](CC(C)C)N(C)C(=O)[C@H](CC(C)C)N(C)C(=O)[C@@H](C)NC(=O)[C@H](C)NC(=O)[C@H](CC(C)C)N(C)C(=O)[C@H](C(C)C)NC(=O)[C@H](CC(C)C)N(C)C(=O)CN(C)C1=O` [Reference Compound 1, [Gly-(1S,2R,E)-7-(flupirtine)-1-hydroxy-2-methyloct-4-enamide]^1 CsA, reference compound], the “toxicity (cell health markers) compared with unmodified CsA” value in series [3] is recorded as “A similar reduction in toxicity was not observed”.

As a reminder, the Ki is a dissociation constant, usually derived from enzyme kinetics or from competition with a known ligand.
